This passage reports EC50 results from patent US9732061B2, “Cinnoline derivatives useful as CB-1 receptor inverse agonists” (Janssen Pharmaceutica NV, priority 2015, dated 2017).

By EC50 is commonly meant the midpoint of the concentration-response curve.

The target of experiment [1] is Human CB1R (Cannabanoid receptor 1) (Homo sapiens (Human), UniProt P21554). Briefly: CB-1 in vitro cAMP (HTRF) assay. The experiment is classed as cell-based. To be noted: HEK-293 cells stably transfected with human CB1R, 250 nM Forskolin, mean where tested more than once. The text has this: (§1) CB1 and CB2 receptors are Gi-coupled GPCR. Activation of CB1 and CB2 receptors results in a decrease in cAMP production. An inverse agonist of the CB1 or CB2 receptor results in the opposite effect, an increase of cAMP production. The principle of this assay is based on HTRF® technology (Homogeneous Time-Resolved Fluorescence). The method is a competitive immunoassay between native cAMP produced by cells and the cAMP labeled with the fluorophore d2. The tracer binding is quantified by a Mab anti-cAMP labeled with Eu3+TBP-NHS Cryptate (supplied as part of the assay kit). The specific signal (i.e. energy transfer) is inversely proportional to the concentration of cAMP in the standard or sample.
(§2) Biological Example 1: CB-1 and CB-2 In Vitro Assay
(§3) Human CB1R (Cannabanoid receptor 1) was stably transfected in HEK-293 cells (DiscoveRx, cat: 93-0200C1). Human CB2R (Cannabanoid receptor 2) was stably transfected in HEK-293 cells (DiscoveRx, cat: 93-0201C1). Cell cultures were maintained in media: DMEM (Invitrogen Cat#12430-054) supplemented with 10% HI FBS (Invitrogen Cat#16140-071), 1% L-glutamine (Invitrogen Cat#25030-081), 0.2 mg/ml Hygromycin B (Invitrogen Cat#10687-010), 600 μg/mL G418 (Invitrogen Cat#10131-035), and 1×Penn/Strep (Invitrogen 15140-122). After cell expansion, aliquots were cryo-stored in media containing 5% DMSO (Pierce Cat#20684).
(§4) One day prior to experiments media was warmed to 37° C. and the cryo-stored cells were thawed in a 37° C. water bath. The cells were then added to media (10× volume) and the mixture was centrifugated at 1000 RPM for 5 min. The supernate was removed and the cells were re-suspended in media. A sample of the cell suspension was evaluated on a Cedex XS automated cell counter (Innovatis Systems) to determine viable cells/ml. Additional media was added to the cells to achieve a final cell density of 4E5 cells/mL. The cells were then plated into 384 well PDL white solid bottom plates (Greiner, Cat#781945) at 20 μL per well using a Multidrop (Thermo Scientific). Cells were removed from Row P (location of cAMP standards). Two columns of cells were plated into a clear bottom 384 well PDL coated plate (Greiner, Cat#781944) to view confluence the day of the assay. The cell plates were lidded and stored for 15 minutes in a hood, then transferred to an incubator (37° C., 5% CO2, 95% humidity) overnight.
(§5) DMSO was added to all wells of 384 well V bottom polystyrene plate (Greiner, Cat#781280) except to columns 1 and 13, rows O and P and wells M13-M23 and N13-N23. Test compounds (60 μL, 10 mM) were added to Column 1 and 13 (A1 through N1 and A13 through L13). Test compounds were serially diluted 1/3 by transferring and mixing 20 μl sample with 40 μL DMSO.
(§6) DMSO (40 μL) was added to wells of 384 well V bottom polystyrene plate: O2 through O11, M14 through M23, N14 through N23, and O14 through O23. AM630 (also known as [6-iodo-2-methyl-1-[2-(4-morpholinyl)ethyl]-1H-indol-3-yl](4-methoxyphenyl)-methanone, Cayman Chemical, Cat#10006974) (60 μL, 10 mM) was added to O1; and 1-(2,4-dichlorophenyl)-7-[(4-fluorophenyl)methylene]-4,5,6,7-tetrahydro-N-1-piperidinyl-1H-indazole-3-carboxamide (60 μL, 10 mM) was added to N13. The control was serially diluted 1/3 by transferring and mixing 20 μl sample with 40 μL DMSO. This process resulted 11 doses per control, 10 mM to […].
(§7) Cells plated the day prior to the assay in clear bottom plates were viewed on an inverse microscope to ensure confluency in the range of 60-75%. […]
(In general: Time-resolved FRET reads energy transfer from a long-lived donor to a nearby acceptor.)

The target of experiment [2] is Human CB2R (Cannabanoid receptor 2) (Homo sapiens (Human), UniProt P34972). Briefly: CB-2 in vitro cAMP (HTRF) assay. In kind it is cell-based. The note with it: HEK-293 cells stably transfected with human CB2R, 250 nM Forskolin, mean where tested more than once.
Excerpt: as §1, §2, §3, §4, §5, §6, §7

Sequence of Human CB2R (Cannabanoid receptor 2) (P34972 whole entry): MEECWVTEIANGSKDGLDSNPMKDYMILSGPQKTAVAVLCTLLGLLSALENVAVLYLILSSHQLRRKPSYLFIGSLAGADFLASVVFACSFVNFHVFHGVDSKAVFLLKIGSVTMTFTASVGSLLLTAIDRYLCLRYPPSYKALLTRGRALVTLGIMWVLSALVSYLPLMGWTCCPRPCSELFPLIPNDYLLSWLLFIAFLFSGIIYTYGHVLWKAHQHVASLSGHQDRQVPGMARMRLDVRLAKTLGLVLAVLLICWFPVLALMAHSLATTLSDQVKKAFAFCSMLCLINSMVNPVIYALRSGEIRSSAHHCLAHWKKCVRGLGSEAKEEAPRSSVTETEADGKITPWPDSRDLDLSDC
Sequence of Human CB1R (Cannabanoid receptor 1) (P21554 whole entry): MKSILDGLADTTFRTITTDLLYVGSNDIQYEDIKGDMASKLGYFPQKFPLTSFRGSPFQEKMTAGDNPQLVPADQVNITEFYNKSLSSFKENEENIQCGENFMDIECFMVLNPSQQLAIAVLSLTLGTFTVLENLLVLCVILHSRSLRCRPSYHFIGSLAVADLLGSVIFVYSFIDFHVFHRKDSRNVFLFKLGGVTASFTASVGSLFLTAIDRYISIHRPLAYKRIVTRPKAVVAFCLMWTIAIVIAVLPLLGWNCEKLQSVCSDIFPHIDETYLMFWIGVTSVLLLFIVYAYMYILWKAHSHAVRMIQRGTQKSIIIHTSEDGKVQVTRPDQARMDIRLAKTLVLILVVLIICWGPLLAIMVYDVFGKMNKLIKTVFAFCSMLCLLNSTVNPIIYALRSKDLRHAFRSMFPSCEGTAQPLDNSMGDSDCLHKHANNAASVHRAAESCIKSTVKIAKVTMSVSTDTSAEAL

Regarding `O=C(O)c1ccc(CCN2CCC(Nc3cnnc4ccc(C(c5ccc(Cl)cc5)c5ccc(Cl)cc5)cc34)CC2)cc1` [Compound 31, 4-(2-(4-(6-(bis(4-chlorophenyl)methyl)cinnolin-4-ylamino)piperidin-1-yl)ethyl)benzoic acid], the concentration giving a half-maximal response (EC50) in experiment [1] is 6640 nM; in experiment [2], over 10000 nM.

For `Clc1ccc(C(c2ccc(Cl)cc2)c2ccc3nncc(N4CCC(Nc5ccccc5)CC4)c3c2)cc1` [Compound 29, 1-[6-[bis(4-chlorophenyl)methyl]cinnolin-4-yl]-N-phenylpiperidin-4-amine], the values for the EC50 in experiment [1] and in experiment [2] were 99 nM and over 10000 nM, respectively.

With `O=C(O)c1cccc(CCNc2cnnc3ccc(C(c4ccc(Cl)cc4)c4ccc(Cl)cc4)cc23)c1` [Compound 38, 3-(2-(6-(bis(4-chlorophenyl)methyl)cinnolin-4-ylamino)ethyl)benzoic acid], the concentration for a half-maximal effect (EC50) stood at 4500 nM in experiment [1] and 3980 nM in experiment [2].

Turning to `O=C(c1ccccc1)N1CCC(Nc2cnnc3ccc(C(c4ccc(Cl)cc4)c4ccc(Cl)cc4)cc23)CC1` [Compound 3, (4-((6-(bis(4-chlorophenyl)methyl)cinnolin-4-yl)amino)piperidin-1-yl)(phenyl)methanone], the EC50 in experiment [1] was 463 nM; in experiment [2] it was over 10000 nM.

As for `OC(c1ccc(Cl)cc1)(c1ccc(Cl)cc1)c1ccc2nncc(NCc3ccc(C(F)(F)F)cc3)c2c1` [Compound 7, bis(4-chlorophenyl)(4-((4-(trifluoromethyl)benzyl)amino)cinnolin-6-yl)methanol], the EC50 was 219 nM in experiment [1] and over 10000 nM in experiment [2].

As for `Clc1ccc(C(c2ccc(Cl)cc2)c2ccc3nncc(NCCc4ccccc4)c3c2)cc1` [Compound 25, 6-(bis(4-chlorophenyl)methyl)-N-phenethylcinnolin-4-amine], the half-maximal effective concentration (EC50) turned out to be 35 nM in experiment [1] and 2460 nM in experiment [2].

In the case of `O=C(O)c1ccc(S(=O)(=O)N2CCC(Nc3cnnc4ccc(C(c5ccc(Cl)cc5)c5ccc(Cl)cc5)cc34)CC2)s1` [Compound 16, 5-(4-(6-(bis(4-chlorophenyl)methyl)cinnolin-4-ylamino)piperidin-1-ylsulfonyl)thiophene-2-carboxylic acid], the EC50 in experiment [1] is 262 nM; in experiment [2], 2140 nM.

Turning to `O=C(O)c1cccc(S(=O)(=O)N2CCC(Nc3cnnc4ccc(C(c5ccc(Cl)cc5)c5ccc(Cl)cc5)cc34)CC2)c1` [Compound 11, 3-(4-(6-(bis(4-chlorophenyl)methyl)cinnolin-4-ylamino)piperidin-1-ylsulfonyl)benzoic acid], the concentration for a half-maximal effect (EC50) in experiment [1] came to 181 nM; in experiment [2] it was 5250 nM.

`O=C(O)c1ccc(S(=O)(=O)N2CCC(Nc3cnnc4ccc(C(c5ccc(Cl)cc5)c5ccc(Cl)cc5)cc34)CC2)o1` [Compound 14, 5-(4-(6-(bis(4-chlorophenyl)methyl)cinnolin-4-ylamino)piperidin-1-ylsulfonyl)furan-2-carboxylic acid]: the EC50 in experiment [1] came out at 1280 nM; in experiment [2], 5600 nM.

As for `O=C(O)c1csc(S(=O)(=O)N2CCC(Nc3cnnc4ccc(C(c5ccc(Cl)cc5)c5ccc(Cl)cc5)cc34)CC2)c1` [Compound 32, 5-[4-([6-[bis(4-chlorophenyl)methyl]cinnolin-4-yl]amino)piperidine-1-sulfonyl]thiophene-3-carboxylic acid], the 50% effective concentration (EC50) in experiment [1] was 40 nM; in experiment [2] it was 1980 nM.

Take `COc1ccc(CNc2cnnc3ccc(C(c4ccc(Cl)cc4)c4ccc(Cl)cc4)cc23)cc1` [Compound 20, 6-(bis(4-chlorophenyl)methyl)-N-(4-methoxybenzyl)cinnolin-4-amine]: the 50% effective concentration (EC50) in experiment [1] amounted to 196 nM; in experiment [2], 3580 nM.

Turning to `O=C(O)c1ccc(N2CCC(Nc3cnnc4ccc(C(c5ccc(Cl)cc5)c5ccc(Cl)cc5)cc34)CC2)cc1` [Compound 17, 4-(4-(6-(bis(4-chlorophenyl)methyl)cinnolin-4-ylamino)piperidin-1-yl)benzoic acid], the results for the EC50 in experiment [1] and in experiment [2] were 10100 nM and 8100 nM, respectively.

Consider `FC(F)(F)c1cccc(CNc2cnnc3ccc(C(c4ccc(Cl)cc4)c4ccc(Cl)cc4)cc23)c1` [Compound 8, 6-(bis(4-chlorophenyl)methyl)-N-(3-(trifluoromethyl)benzyl)cinnolin-4-amine], for which the EC50 is 12 nM in experiment [1] and over 10000 nM in experiment [2].

For the molecule `O=S(=O)(N1CCC(Nc2cnnc3ccc(C(O)(c4ccc(Cl)cc4)c4ccc(Cl)cc4)cc23)CC1)C(F)(F)F` [Compound 1, bis(4-chlorophenyl)(4-((1-((trifluoromethyl)sulfonyl)piperidin-4-yl)amino)cinnolin-6-yl)methanol], the 50% effective concentration (EC50) in experiment [1] was 455 nM; in experiment [2], over 10000 nM.

For the molecule `O=C(O)c1cccc(CCN2CCC(Nc3cnnc4ccc(C(c5ccc(Cl)cc5)c5ccc(Cl)cc5)cc34)CC2)c1` [Compound 23, 3-[2-[4-([6-[bis(4-chlorophenyl)methyl]cinnolin-4-yl]amino)piperidin-1-yl]ethyl]benzoic acid], the EC50 in experiment [1] is 5090 nM; in experiment [2] it was over 10000 nM.

Take `O=C(O)c1ccc(CN2CCC(Nc3cnnc4ccc(C(c5ccc(Cl)cc5)c5ccc(Cl)cc5)cc34)CC2)cc1` [Compound 13, 4-((4-(6-(bis(4-chlorophenyl)methyl)cinnolin-4-ylamino)piperidin-1-yl)methyl)benzoic acid]: the EC50 in experiment [1] was 1440 nM; in experiment [2], over 10000 nM.

On to `Oc1ccc(CNc2cnnc3ccc(C(c4ccc(Cl)cc4)c4ccc(Cl)cc4)cc23)cc1` [Compound 21, 4-((6-(bis(4-chlorophenyl)methyl)cinnolin-4-ylamino)methyl)phenol], for which the results for the concentration for a half-maximal effect (EC50) in experiment [1] and in experiment [2] were 1160 nM and 5930 nM, respectively.

With `O=S(=O)(N1CCC(Nc2cnnc3ccc(C(c4ccc(Cl)cc4)c4ccc(Cl)cc4)cc23)C1)C(F)(F)F` (centres unmarked) [Compound 26, 6-(bis(4-chlorophenyl)methyl)-N-(1-(trifluoromethylsulfonyl)pyrrolidin-3-yl)cinnolin-4-amine], the concentration giving a half-maximal response (EC50) in experiment [1] came to 95 nM; in experiment [2], 1930 nM.

Regarding `O=C(O)c1ccc(CN2CCC(Nc3cnnc4ccc(C(c5ccc(Cl)cc5)c5ccc(Cl)cc5)cc34)CC2)s1` [Compound 15, 5-((4-(6-(bis(4-chlorophenyl)methyl)cinnolin-4-ylamino)piperidin-1-yl)methyl)thiophene-2-carboxylic acid], the EC50 in experiment [1] was found to be 399 nM; in experiment [2] it was 3690 nM.

As for `O=S(=O)(N1CCN(c2cnnc3ccc(C(c4ccc(Cl)cc4)c4ccc(Cl)cc4)cc23)CC1)C(F)(F)F` [Compound 24, 6-[bis(4-chlorophenyl)methyl]-4-[4-(trifluoromethane)sulfonylpiperazin-1-yl]cinnoline], the EC50 in experiment [1] is 261 nM; in experiment [2], over 10000 nM.

Take `O=S(=O)(N1CCC(Nc2cnnc3ccc(C(c4ccc(Cl)cc4)c4ccc(Cl)cc4)cc23)CC1)C(F)(F)F` [Compound 5, 6-(bis(4-chlorophenyl)methyl)-N-(1-((trifluoromethyl)sulfonyl)piperidin-4-yl)cinnolin-4-amine]: the EC50 in experiment [1] turned out to be 13 nM; in experiment [2], 3350 nM.

Turning to `O=C(O)c1ccccc1CN1CCC(Nc2cnnc3ccc(C(c4ccc(Cl)cc4)c4ccc(Cl)cc4)cc23)CC1` [Compound 18, 2-((4-(6-(bis(4-chlorophenyl)methyl)cinnolin-4-ylamino)piperidin-1-yl)methyl)benzoic acid], the concentration for a half-maximal effect (EC50) in experiment [1] was determined as 9500 nM; in experiment [2], 9900 nM.
